Among the test systems are 786-0 renal; HOP-62 NSCLC; KM12 colon; OVCAR-3 ovarian; SF-268 CNS; SK-MEL-28 melanoma; SK-MEL-5 melanoma; SNB-75 CNS; SW-620 colon; T-47D breast.
Common to all, as to experiment: NCI tumour cell line growth inhibition, 48 h

The structures appear in SMILES notation.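 Grown in 96-well plates, cells were treated for 48 hours with each compound at five concentrations. Insufficient inhibition: endpoint recorded as highest concentration tested. GI50: concentration for 50% inhibition of growth. TGI: total growth inhibition.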 Some results are limits rather than exact numbers.

We go through 22 compounds from PubChem BioAssay (NCI).

Turning to `CCN(CCCOc1ccccc1)CCN(CC)CCCOc1ccccc1`, the TGI with 786-0 renal was determined as 50.7 µM; in the experiment on HOP-62 NSCLC it was 45.5 µM; with KM12 colon it was 27.8 µM; in the experiment on OVCAR-3 ovarian, 31.9 µM; in the experiment with SF-268 CNS, 28.4 µM; with SK-MEL-28 melanoma, 36.7 µM. In addition, the TGI was determined as 5.44 µM in the experiment with SK-MEL-5 melanoma, 48.6 µM in the experiment with SNB-75 CNS and 70.5 µM in the experiment on SW-620 colon.
For the compound `Cc1cc([NH-])c([NH-])cc1C.[Cl][Pt+2][Cl]`, the GI50 in the experiment with HOP-62 NSCLC was more than 42.8 µM; in the experiment on KM12 colon it was 24.5 µM; in the experiment with OVCAR-3 ovarian, 17.9 µM; in the experiment on SF-268 CNS it was 6.27 µM; with SK-MEL-28 melanoma it was 16.7 µM; in the experiment on SK-MEL-5 melanoma, 9.48 µM. Also, the GI50 is 39.2 µM with SNB-75 CNS and 5.06 µM with SW-620 colon. Also, the TGI is more than 77 µM with HOP-62 NSCLC; more than 100 µM in the experiment on KM12 colon; 33.6 µM with OVCAR-3 ovarian; 34.6 µM with SF-268 CNS; 39.5 µM with SK-MEL-28 melanoma; 25.3 µM in the experiment on SK-MEL-5 melanoma. Further, the TGI in the experiment on SNB-75 CNS is more than 100 µM; with SW-620 colon, 27 µM.
Take `c1ccc(/C(=N/Nc2nc3ccccc3s2)C2CCCCC2)nc1`: the TGI in the experiment with 786-0 renal is 21.9 µM; with HOP-62 NSCLC it was 23.5 µM; in the experiment with KM12 colon, 29.6 µM; in the experiment with OVCAR-3 ovarian it was 7.6 µM; in the experiment with SF-268 CNS, 25 µM; in the experiment with SK-MEL-28 melanoma it was 25.8 µM. The TGI in the experiment with SK-MEL-5 melanoma stood at 18.9 µM; in the experiment on SW-620 colon, 20.1 µM; in the experiment with T-47D breast, 15.5 µM.
As for `Cc1ccc(C)c(NC(=O)C(=O)C(C(=O)c2ccc3ccccc3c2)C2OC(=O)c3ccccc32)c1` (stereo not drawn), the TGI in the experiment on HOP-62 NSCLC worked out at 62.1 µM; in the experiment with KM12 colon, 33.2 µM; in the experiment with SF-268 CNS, 23.2 µM; in the experiment on SK-MEL-28 melanoma, 34.4 µM; in the experiment with SK-MEL-5 melanoma, 31.5 µM; with SNB-75 CNS it was 58.8 µM. In the experiment with SW-620 colon, this compound had a TGI of 29.4 µM.
On to `CCCCCOc1ccc(C=Nc2ccc(CCc3ccc(N=Cc4ccc(OCCCCC)cc4)cc3)cc2)cc1`, for which the TGI in the experiment with HOP-62 NSCLC, in the experiment with KM12 colon, with OVCAR-3 ovarian, in the experiment on SF-268 CNS, with SK-MEL-28 melanoma and in the experiment on SK-MEL-5 melanoma was more than 100 µM in each case. In addition, the TGI in the experiment on SNB-75 CNS and with SW-620 colon was more than 100 µM throughout.
`O=c1[nH]c2nc3ccccc3c(=O)n2/c1=C/c1ccc(Cl)cc1`: the TGI with 786-0 renal, in the experiment with HOP-62 NSCLC, with KM12 colon, in the experiment with OVCAR-3 ovarian, in the experiment on SF-268 CNS and with SK-MEL-28 melanoma was more than 100 µM throughout. The TGI was 59.7 µM in the experiment on SW-620 colon and more than 100 µM in the experiment on T-47D breast.
As for `O=C(Nc1ccccc1F)c1cc2ccc(O)cc2oc1=Nc1cccc(F)c1`, the TGI with 786-0 renal is 30 µM; in the experiment on HOP-62 NSCLC, 38.6 µM; in the experiment on KM12 colon it was 44.7 µM; with OVCAR-3 ovarian it was 33.1 µM; with SF-268 CNS, 79.1 µM; in the experiment with SK-MEL-28 melanoma, 38.7 µM. In addition, the TGI in the experiment on SK-MEL-5 melanoma came to 18 µM; in the experiment with SW-620 colon, 32.6 µM; in the experiment with T-47D breast it was 39.3 µM.
For the compound `O=C(O)CC(Cc1ccccc1Cl)C(=O)O` (stereo not drawn), the TGI in the experiment with 786-0 renal, in the experiment with HOP-62 NSCLC, with KM12 colon, in the experiment on OVCAR-3 ovarian, with SF-268 CNS and in the experiment with SK-MEL-28 melanoma was more than 100 µM each time. In addition, the TGI in the experiment on SK-MEL-5 melanoma, with SW-620 colon and with T-47D breast was more than 100 µM each time.
Regarding `Cn1c(=O)c2[nH]c(N/N=N/c3nncs3)nc2n(C)c1=O`, the TGI with 786-0 renal, in the experiment with HOP-62 NSCLC, with KM12 colon, in the experiment on OVCAR-3 ovarian, with SF-268 CNS and with SK-MEL-28 melanoma was more than 100 µM each time. In addition, the TGI with SK-MEL-5 melanoma, with SW-620 colon and in the experiment with T-47D breast was more than 100 µM in each case.
For `COc1ccc(N2CC(=O)N(C(=O)COc3ccc(OCC(=O)N4C(=O)CN(c5ccc(OC)cc5)C4=S)cc3)C2=S)cc1`, the TGI with 786-0 renal, with KM12 colon, in the experiment on SF-268 CNS, with SK-MEL-28 melanoma, in the experiment with SK-MEL-5 melanoma and in the experiment with SNB-75 CNS was more than 100 µM throughout. In the experiment on SW-620 colon, this compound gave a TGI of more than 100 µM.
With `CCO/C(=N/S(=O)(=O)C(F)(F)F)N(C(C)C)C(C)C`, the TGI with 786-0 renal, in the experiment on KM12 colon, in the experiment with SF-268 CNS, with SK-MEL-28 melanoma, in the experiment on SK-MEL-5 melanoma and with SW-620 colon was more than 100 µM in each case. The compound also yielded a TGI with T-47D breast of more than 100 µM.
Take `CC1CC[C@@]2(OC1)OC1C[C@H]3[C@@H]4CC=C5CC(OC6OC(CO)C(OC7OC(CO)C(O)C(OC8OCC(O)C(O)C8O)C7OC7OC(CO)C(OC8OC(C)C(OC9OC(C)C(O)C(O)C9O)C(O)C8O)C(O)C7O)C(O)C6O)CCC5(C)[C@H]4CCC3(C)C1[C@@H]2C` (stereo partly drawn): the TGI in the experiment on 786-0 renal was 10.3 µM; in the experiment with HOP-62 NSCLC it was 19 µM; in the experiment with KM12 colon, 17.7 µM; in the experiment with OVCAR-3 ovarian it was 20.7 µM; in the experiment on SF-268 CNS, 18 µM; in the experiment with SK-MEL-28 melanoma it was 20.1 µM. Also, the TGI in the experiment on SK-MEL-5 melanoma was determined as 15.8 µM; with SW-620 colon it was 22.9 µM; with T-47D breast, 20.2 µM.
On to `COC(=O)[C@H]1C=NN[C@@H]1C(=O)N1[C@H]2CC3CC[C@@]2(CS1(=O)=O)C3(C)C`, for which the TGI with HOP-62 NSCLC, with KM12 colon, in the experiment with SF-268 CNS, in the experiment on SK-MEL-28 melanoma, in the experiment with SK-MEL-5 melanoma and with SW-620 colon was more than 100 µM each time.
In the case of `CC(C)(C)c1ccccc1N1C(=O)c2ccc3c4c(ccc(c24)C1=O)N(c1ccccc1C(C)(C)C)C3=O`, the TGI in the experiment with 786-0 renal, in the experiment on HOP-62 NSCLC, in the experiment with KM12 colon, in the experiment with OVCAR-3 ovarian, in the experiment with SF-268 CNS and with SK-MEL-28 melanoma was more than 100 µM throughout. For the same compound, the TGI in the experiment on SK-MEL-5 melanoma and with SW-620 colon was more than 100 µM each time.
Take `Cc1cc(C)nc(NS(=O)(=O)c2ccc(NC(=O)c3c4ccccc4nc4ccccc34)cc2)n1`: the TGI with 786-0 renal, in the experiment with HOP-62 NSCLC, in the experiment with KM12 colon, with OVCAR-3 ovarian, with SF-268 CNS and in the experiment with SK-MEL-28 melanoma was more than 100 µM each time. In addition, the TGI in the experiment on SK-MEL-5 melanoma, in the experiment with SNB-75 CNS and in the experiment on SW-620 colon was more than 100 µM in each case.
Take `N#Cc1c(-c2ccc(Cl)cc2)c2c(nn3c4ccc5ccccc5c4nnc23)[nH]c1=O`: the TGI in the experiment on 786-0 renal amounted to 6.16 µM; in the experiment with HOP-62 NSCLC, 7.97 µM; with KM12 colon, 13.3 µM; in the experiment with OVCAR-3 ovarian, 3.62 µM; in the experiment with SF-268 CNS it was 8.26 µM; with SK-MEL-28 melanoma, 5.28 µM. In addition, the TGI with SK-MEL-5 melanoma turned out to be 6.27 µM; in the experiment with SW-620 colon it was 11.4 µM; in the experiment on T-47D breast, 2.66 µM.
For `CCOC(=O)C(C#N)(Cc1c[nH]c2ccccc12)NC(C)=O` (stereo not drawn), the TGI with HOP-62 NSCLC, in the experiment with KM12 colon, in the experiment on OVCAR-3 ovarian, in the experiment on SF-268 CNS, in the experiment on SK-MEL-28 melanoma and with SK-MEL-5 melanoma was more than 100 µM throughout. Moreover, the TGI with SNB-75 CNS and with SW-620 colon was more than 100 µM in each case.
Consider `C[C@H](c1ccccc1)N1C(=O)[C@@H](O)[C@H]1[C@H](CO)OCc1ccccc1`, for which the TGI in the experiment on 786-0 renal, with HOP-62 NSCLC, in the experiment on KM12 colon, with OVCAR-3 ovarian, with SF-268 CNS and in the experiment on SK-MEL-28 melanoma was more than 100 µM throughout. Also, the TGI with SK-MEL-5 melanoma, in the experiment with SNB-75 CNS and with SW-620 colon was more than 100 µM throughout.
Take `CNC(C)(C)Cc1ccc(Cl)cc1`: the TGI in the experiment with 786-0 renal, in the experiment with HOP-62 NSCLC, in the experiment with KM12 colon, in the experiment with OVCAR-3 ovarian, in the experiment with SF-268 CNS and with SK-MEL-28 melanoma was more than 100 µM in each case. Further, the TGI with SK-MEL-5 melanoma, in the experiment on SNB-75 CNS and in the experiment with SW-620 colon was more than 100 µM throughout.
Turning to `c1ccc(-c2csc3c4ccccc4c4ccccc4[n+]23)cc1`, the TGI was determined as 21 µM in the experiment with 786-0 renal; 20.7 µM in the experiment with HOP-62 NSCLC; 3.36 µM with KM12 colon; 5.29 µM with OVCAR-3 ovarian; 9.65 µM in the experiment on SF-268 CNS; 7.96 µM with SK-MEL-28 melanoma. Further, the figures for the TGI with SK-MEL-5 melanoma, in the experiment with SNB-75 CNS and with SW-620 colon were 2.86 µM, 6.98 µM and 17.4 µM, respectively.
On to `CCNCCNC(=O)c1ccc(I)cc1`, for which the TGI in the experiment on 786-0 renal, with KM12 colon, with OVCAR-3 ovarian, in the experiment on SF-268 CNS, in the experiment on SK-MEL-28 melanoma and with SK-MEL-5 melanoma was more than 100 µM each time. Moreover, the TGI with SNB-75 CNS and with SW-620 colon was more than 100 µM in each case.
Take `C1=C(c2ccccc2)SC(N2CCCCC2)S1` (stereo not drawn): the TGI in the experiment with HOP-62 NSCLC, with KM12 colon, in the experiment on OVCAR-3 ovarian, in the experiment with SF-268 CNS, with SNB-75 CNS and in the experiment with SW-620 colon was more than 100 µM each time.
